Article PMC4809600, “The Influence of Chronic Wound Extracts on Inflammatory Cytokine and Histatin Stability” (PLoS ONE, 2016)
Where no end group is shown, it is not given here.

Tests used:
[1] = Stability in CWE with protease inhibitor cocktail (PIC), capillary zone electrophoresis; format: in vitro ADME, human; details: 37°C, CZE, 0 h = 100%; for Percentage intact, CWE + PIC 2h / Percentage intact, CWE + PIC 4h / Percentage intact, CWE + PIC 8h / Percentage intact, CWE + PIC 16h / Percentage intact, CWE + PIC 24h / Percentage intact, CWE + PIC 48h / Percentage intact, CWE + PIC 72h / Percentage intact, CWE + PIC 96h: 1 mg/ml in PBS mixed 1:1 with CWE (1 mg/ml protein, pool of 5 donors) in PBS containing PIC (final 1:140 v/v), ratio to imidazole
From the text: (§1) Debridement tissue was obtained from chronic ulcers of 15 patients with therapy resistant (arterio-venous) leg ulcers, according to procedures described earlier. In brief, moist, easily removable debridement material, essentially blood free, was collected from the ulcer surface and divided equally into two different solutions: (i) PBS (B. Braun, Melsungen, Germany), (ii) PBS with protease inhibitor cocktail (PIC) (1:100; v/v) (Sigma-Aldrich, Steinheim, Germany). The mixtures were gently shaken for 1 h at 4°C to elute proteins and centrifuged; the supernatants were stored at -80°C. Total protein content of the supernatant was measured using the BioRad Protein Assay (BioRad Laboratories, Hercules, California, USA) essentially as described by the supplier. Samples were diluted to 1 mg/ml protein and extracts of five different donors were pooled; three different pools of five donors were used in all experiments. The samples are referred to as chronic wound extracts (CWE).
(§2) To determine the stability of the different peptides in CWE, histatins and cytokines were dissolved in PBS at 1 mg/ml. Histatins and cytokines were incubated in a 1:1 ratio with (i) PBS, (ii) CWE in PBS, or (iii) CWE in PBS containing PIC, in a total volume of 25 μl. Imidazole (Sigma-Aldrich) was added as an internal standard, with a final concentration of 100 μg/ml. The mixtures were incubated at 37°C, and samples were taken at 0, 24, 48, 72 and 96 h. For histatins containing mixtures, additional samples were taken after 2, 4, 8 and 16 h of incubation.
(§3) The samples were analyzed with a BioFocus 2000 capillary zone electrophoresis system (Bio-Rad Laboratories, Hercules, CA, USA) equipped with an uncoated fused-silica capillary of internal diameter 50 μm and a length of 24 cm. Samples were loaded by pressure injection (5 psi/sec). Separation was performed at 10 kV (cathode at the detector side) at 20°C using 0.1 M phosphate buffer (pH 2.5) as electrolyte and monitored continuously at 200 nm. Peaks were quantified with the BioFocus Integrator software. In order to quantify the percentage of intact peptides remaining after incubation with CWE, the ratios of histatins, rhIL-6 or rhCXCL8 to internal standard was set at 100% at 0h, and the ratios at the other incubation time points were related to this.

[2] = Stability in chronic wound extracts (CWE), capillary zone electrophoresis; format: in vitro ADME, human; details: 37°C, CZE; for Percentage intact, CWE 2h / Percentage intact, CWE 4h / Percentage intact, CWE 8h / Percentage intact, CWE 16h / Percentage intact, CWE 24h / Percentage intact, CWE 48h / Percentage intact, CWE 72h / Percentage intact, CWE 96h: 1 mg/ml in PBS mixed 1:1 with CWE (1 mg/ml protein, pool of 5 donors) in PBS, UV 200 nm, ratio to imidazole
From the text: as §1, §2, §3

RKFHEKHHSHREFPFYGDYGSNYLYDN [Hst2]
Percentage intact, CWE + PIC 2h ([1]; experiment 1 of 3): 93.4426% | Percentage intact, CWE + PIC 2h ([1]; experiment 2 of 3): 92.5142% | Percentage intact, CWE + PIC 2h ([1]; experiment 3 of 3): 89.0301% | Percentage intact, CWE + PIC 4h ([1]; experiment 1 of 3): 91.5351% | Percentage intact, CWE + PIC 4h ([1]; experiment 2 of 3): 92.7977% | Percentage intact, CWE + PIC 4h ([1]; experiment 3 of 3): 86.7184% | Percentage intact, CWE + PIC 8h ([1]; experiment 1 of 3): 85.6684% | Percentage intact, CWE + PIC 8h ([1]; experiment 2 of 3): 89.4382% | Percentage intact, CWE + PIC 8h ([1]; experiment 3 of 3): 85.0239% | Percentage intact, CWE + PIC 16h ([1]; experiment 1 of 3): 76.054% | Percentage intact, CWE + PIC 16h ([1]; experiment 2 of 3): 80.3459% | Percentage intact, CWE + PIC 16h ([1]; experiment 3 of 3): 78.2959% | Percentage intact, CWE + PIC 24h ([1]; 24 h, experiment 1 of 3): 76.7074% | Percentage intact, CWE + PIC 24h ([1]; 24 h, experiment 2 of 3): 74.947% | Percentage intact, CWE + PIC 24h ([1]; 24 h, experiment 3 of 3): 84.5492% | Percentage intact, CWE + PIC 48h ([1]; experiment 1 of 3): 70.9832% | Percentage intact, CWE + PIC 48h ([1]; experiment 2 of 3): 66.2527% | Percentage intact, CWE + PIC 48h ([1]; experiment 3 of 3): 75.4922% | Percentage intact, CWE + PIC 72h ([1]; experiment 1 of 3): 69.8915% | Percentage intact, CWE + PIC 72h ([1]; experiment 2 of 3): 66.4949% | Percentage intact, CWE + PIC 72h ([1]; experiment 3 of 3): 68.9587% | Percentage intact, CWE + PIC 96h ([1]; experiment 1 of 3): 63.8972% | Percentage intact, CWE + PIC 96h ([1]; experiment 2 of 3): 62.3087% | Percentage intact, CWE + PIC 96h ([1]; experiment 3 of 3): 62.2105% | remaining at 24 h, 0.5 mg/ml ([1]; human, with protease inhibitor cocktail (PIC), CWE with protease inhibitor cocktail (final 1:140 v/v), 24 h, mean of 3 independent experiments, read-out: Remaining fraction of intact peptide after 24 h in CWE + PIC): 78% | Percentage intact, CWE 2h ([2]; 0 h = 100%, experiment 1 of 3): 96.21% | Percentage intact, CWE 2h ([2]; 0 h = 100%, experiment 2 of 3): 97.4179% | Percentage intact, CWE 2h ([2]; 0 h = 100%, experiment 3 of 3): 80.1639% | Percentage intact, CWE 4h ([2]; 0 h = 100%, experiment 1 of 3): 78.5338% | Percentage intact, CWE 4h ([2]; 0 h = 100%, experiment 2 of 3): 80.0345% | Percentage intact, CWE 4h ([2]; 0 h = 100%, experiment 3 of 3): 54.5442% | Percentage intact, CWE 8h ([2]; 8 h, 0 h = 100%, experiment 1 of 3): 57.5027% | Percentage intact, CWE 8h ([2]; 8 h, 0 h = 100%, experiment 2 of 3): 66.6666% | Percentage intact, CWE 8h ([2]; 8 h, 0 h = 100%, experiment 3 of 3): 34.5662% | Percentage intact, CWE 16h ([2]; 0 h = 100%, experiment 1 of 3): 14.9136% | Percentage intact, CWE 16h ([2]; 0 h = 100%, experiment 2 of 3): 27.664% | Percentage intact, CWE 16h ([2]; 0 h = 100%, experiment 3 of 3): 7.724% | Percentage intact, CWE 24h ([2]; 24 h, 0 h = 100%, experiment 1 of 3): 4.675% | Percentage intact, CWE 24h ([2]; 24 h, 0 h = 100%, experiment 2 of 3): 5.495% | Percentage intact, CWE 24h ([2]; 24 h, 0 h = 100%, experiment 3 of 3): 8.834% | Percentage intact, CWE 48h ([2]; 0 h = 100%, experiment 2 of 3): 0.0001% | Percentage intact, CWE 48h ([2]; 0 h = 100%, experiment 3 of 3): 0.0001% | Percentage intact, CWE 72h ([2]; 0 h = 100%, experiment 2 of 3): 0.0001% | Percentage intact, CWE 72h ([2]; 0 h = 100%, experiment 3 of 3): 0.0001% | Percentage intact, CWE 96h ([2]; 0 h = 100%, experiment 2 of 3): 0.0001% | Percentage intact, CWE 96h ([2]; 0 h = 100%, experiment 3 of 3): 0.0001% | remaining at 8 h, 0.5 mg/ml ([2]; human, chronic wound extracts (CWE), 1 mg/ml in PBS mixed 1:1 with CWE (1 mg/ml protein, pools of 5 donors), 8 h, 0 h = 100%, mean of 3 independent experiments, read-out: Original amount of peptide remaining intact after 8 h in CWE): 53% | remaining at 24 h, 0.5 mg/ml ([2]; human, chronic wound extracts (CWE), 1 mg/ml in PBS mixed 1:1 with CWE (1 mg/ml protein, pools of 5 donors), 24 h, 0 h = 100%, mean of 3 independent experiments, read-out: Original amount of peptide remaining intact after 24 h in CWE): 6% | metabolised at 8 h, 0.5 mg/ml ([2]; human, chronic wound extracts (CWE), incubation with chronic wound extracts, 8 h, read-out: Breakdown (degradation) in CWE in 8 h): ~50%
